Measured values reported in EP3800188A1, “SUBSTITUTED PYRAZOLOPYRIMIDINES AS IRAK4 INHIBITORS” (Bayer AG, priority 2019, dated 2021).

Assays:
[1] = Metabolic stability in human liver microsomes; details: 1 µM compound; for CLblood, human microsomes: hepatic in vivo blood clearance calculated with well stirred liver model, '(stable)' given beside < 0.01; for Fmax, human microsomes: maximal oral bioavailability calculated with well stirred liver model, 0.5 mg/mL protein, '(stable)' given beside 100
[2] = target: T1, human IRAK4 (Homo sapiens, UniProt Q9NWZ3); experiment: Human IRAK4 kinase activity inhibition assay (IRAK4 TR-FRET assay); type: biochemical; details: 1 mM ATP, GST-human IRAK4, average or median values
T1 construct: GST (N); made in house; host or cells: baculovirus-infected Hi5 (BTI-TN-5B1-4) insect cells
T1 sequence (Q9NWZ3 1-460): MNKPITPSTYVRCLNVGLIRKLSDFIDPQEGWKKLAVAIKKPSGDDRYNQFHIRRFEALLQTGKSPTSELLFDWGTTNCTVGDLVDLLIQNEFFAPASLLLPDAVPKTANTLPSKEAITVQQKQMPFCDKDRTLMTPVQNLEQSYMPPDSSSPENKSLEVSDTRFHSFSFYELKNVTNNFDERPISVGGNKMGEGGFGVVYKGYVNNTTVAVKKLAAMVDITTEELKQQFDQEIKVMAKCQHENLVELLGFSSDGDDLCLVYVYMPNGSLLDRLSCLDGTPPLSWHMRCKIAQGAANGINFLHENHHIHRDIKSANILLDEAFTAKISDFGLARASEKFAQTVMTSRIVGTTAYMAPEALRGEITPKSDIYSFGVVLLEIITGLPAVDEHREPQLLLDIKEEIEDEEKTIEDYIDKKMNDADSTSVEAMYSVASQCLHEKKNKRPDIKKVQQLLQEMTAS
Outline: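 Signal was the 665/620 nm emission ratio from a europium anti-mouse-IgG, anti-phosphoserine antibody and streptavidin-XL665 complex formed over 1 h at 22°C. It was scaled between no-enzyme (100%) and no-compound (0%) wells. Beforehand, compounds (20 µM down to 0.073 nM, 11 points) sat 15 min with roughly 0.2 nM insect-cell-expressed GST-human IRAK4 before phosphorylation of a biotinylated peptide substrate.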

Row | Structure (SMILES) | CLblood, human microsomes [1] | Fmax, human microsomes [1] | IC50 [2]
1 | O=S1(=O)C[C@H](Nc2nc(N3CC(N4CCOCC4)C3)c3cnn(-c4cccc(C(F)(F)F)c4)c3n2)[C@@H](O)C1 (relative stereo) [Example I-37, rel-(3R,4R)-4-({4-[3-(morpholin-4-yl)azetidin-1-yl]-1-[3-(trifluoromethyl)phenyl]-1H-pyrazolo[3,4-d]pyrimidin-6-yl}amino)tetrahydrothiophene-3-ol 1,1-dioxide] | 0.83 mL/min/kg | 97% | 11.5 nM
2 | CCC1(O)CN(c2nc(N[C@@H]3CCOC3)nc3c2cnn3-c2cccc(S(C)(=O)=O)c2)C1 [Example V-2, 3-ethyl-1-{1-[3-(methylsulfonyl)phenyl]-6-[(3R)-tetrahydrofuran-3-ylamino]-1H-pyrazolo[3,4-d]pyrimidin-4-yl}azetidin-3-ol] | – | – | 179 nM
3 | O=S1(=O)CC[C@H](Nc2nc(N3CC(N4CCOCC4)C3)c3cnn(-c4cccc(C(F)F)c4)c3n2)C1 [II-3, 1-[3-(difluoromethyl)phenyl]-N-[(3S)-1,1-dioxidotetrahydrothiophen-3-yl]-4-[3-(morpholin-4-yl)azetidin-1-yl]-1H-pyrazolo[3,4-d]pyrimidin-6-amine] | – | – | 24.8 nM
4 | O=C(O)CC1CN(c2nc(NC3CCS(=O)(=O)CC3)nc3c2cnn3-c2cccc(C(F)F)c2)C1 [II-9, (1-{1-[3-(difluoromethyl)phenyl]-6-[(1,1-dioxidotetrahydro-2H-thiopyran-4-yl)amino]-1H-pyrazolo[3,4-d]pyrimidin-4-yl}azetidin-3-yl)acetic acid] | – | – | 84.9 nM
5 | O[C@H]1C[C@H](Nc2nc(N3CC(N4CCOCC4)C3)c3cnn(-c4cccc(C(F)F)c4)c3n2)C1 [II-25, trans-3-({1-[3-(difluoromethyl)phenyl]-4-[3-(morpholin-4-yl)azetidin-1-yl]-1H-pyrazolo-[3,4-d]pyrimidin-6-yl}amino)cyclobutanol] | – | – | 6.15 nM
6 | CC(C)(C(=O)O)C1CN(c2nc(NC3CCS(=O)(=O)CC3)nc3c2cnn3-c2cccc(C(F)F)c2)C1 [II-26, 2-(1-{1-[3-(difluoromethyl)phenyl]-6-[(1,1-dioxidotetrahydro-2H-thiopyran-4-yl)amino]-1H-pyrazolo[3,4-d]pyrimidin-4-yl}azetidin-3-yl)-2-methylpropanoic acid] | – | – | 73.6 nM
7 | O[C@@H]1CCN(c2nc(N[C@H]3C[C@H](O)C3)nc3c2cnn3-c2cccc(C(F)F)c2)C1 [II-33, (3R)-1-(1-[3-(difluoromethyl)phenyl]-6-{[(1r,3R)-3-hydroxycyclobutyl]amino}-1H-pyrazolo[3,4-d]pyrimidin-4-yl)pyrrolidin-3-ol] | – | – | 16.5 nM
8 | CC(C)(O)CC1CN(c2nc(N[C@H]3C[C@@]4(CCN4)C3)nc3c2cnn3-c2cccc(C(F)F)c2)C1 [II-36, 1-(1-{6-[(4r,6s)-1-azaspiro[3.3]heptan-6-ylamino]-1-[3-(difluoromethyl)phenyl]-1H-pyrazolo[3,4-d]pyrimidin-4-yl}azetidin-3-yl)-2-methylpropan-2-ol] | – | – | 2.76 nM
9 | CC(C)(O)C1CCN(c2nc(N[C@@H]3CNC(=O)C3)nc3c2cnn3-c2cccc(OC(F)(F)F)c2)CC1 [III-1, (4S)-4-({4-[4-(2-hydroxypropan-2-yl)piperidin-1-yl]-1-[3-(trifluoromethoxy)phenyl]-1H-pyrazolo[3,4-d]pyrimidin-6-yl}amino)pyrrolidin-2-one] | – | – | 19.1 nM
10 | CS(=O)(=O)[C@H]1C[C@H](Nc2nc(N3C[C@H](O)[C@@H](F)C3)c3cnn(-c4cccc(OC(F)F)c4)c3n2)C1 [IV-5, (3S,4S)-1-(1-[3-(difluoromethoxy)phenyl]-6-{[trans-3-(methylsulfonyl)cyclobutyl]amino}-1H-pyrazolo[3,4-d]pyrimidin-4-yl)-4-fluoropyrrolidin-3-ol] | – | – | 11.2 nM
11 | O=S1(=O)CCC(Nc2nc(N3C[C@H](O)[C@@H](F)C3)c3cnn(-c4cccc(OC(F)F)c4)c3n2)CC1 [IV-7, (3S,4S)-1-{1-[3-(difluoromethoxy)phenyl]-6-[(1,1-dioxidotetrahydro-2H-thiopyran-4-yl)amino]-1H-pyrazolo[3,4-d]pyrimidin-4-yl}-4-fluoropyrrolidin-3-ol] | – | – | 46.4 nM
12 | CN1CC[C@H](Nc2nc(N3CCC(C(C)(C)O)CC3)c3cnn(-c4cccc(C(C)(C)O)c4)c3n2)C1 [VI-1, 2-[1-(1-[3-(2-hydroxypropan-2-yl)phenyl]-6-{[(3S)-1-methylpyrrolidin-3-yl]amino}-1H-pyrazolo[3,4-d]pyrimidin-4-yl)piperidin-4-yl]propan-2-ol] | – | – | 77.3 nM

Now from value to molecule:

Row | CLblood, human microsomes [1] | Fmax, human microsomes [1] | IC50 [2] | Structure (SMILES)
13 | 1.67 mL/min/kg | 93% | 2.64 nM | C[C@H]1CN(c2nc(N[C@H]3C[C@H](S(C)(=O)=O)C3)nc3c2cnn3-c2cccc(C(F)F)c2)C[C@@H]1O (relative stereo) [II-17-1, rel-(3R,4S)-1-(1-[3-(difluoromethyl)phenyl]-6-{[trans-3-(methylsulfonyl)cyclobutyl]-amino}-1H-pyrazolo[3,4-d]pyrimidin-4-yl)-4-methylpyrrolidin-3-ol]
14 | 4.67 mL/min/kg | 79% | 2.1 nM | C[C@H]1CN(c2nc(N[C@H]3C[C@H](S(C)(=O)=O)C3)nc3c2cnn3-c2cccc(C(F)F)c2)C[C@@H]1O (single isomer, unassigned) [II-17-2, (3R*,4S*)-1-(1-[3-(difluoromethyl)phenyl]-6-{[trans-3-(methylsulfonyl)cyclobutyl]amino}-1H-pyrazolo[3,4-d]pyrimidin-4-yl)-4-methylpyrrolidin-3-ol]
15 | – | – | 13.3 nM | CS(=O)(=O)N1CC(Nc2nc(N3CC(N4CCOCC4)C3)c3cnn(-c4cccc(C(F)F)c4)c3n2)C1 [II-13, 1-[3-(difluoromethyl)phenyl]-N-[1-(methylsulfonyl)azetidin-3-yl]-4-[3-(morpholin-4-yl)azetidin-1-yl]-1H-pyrazolo[3,4-d]pyrimidin-6-amine]
16 | – | – | 45.2 nM | O=S1(=O)CCC(Nc2nc(N3CCC(O)(C(F)(F)F)C3)c3cnn(-c4cccc(C(F)F)c4)c3n2)CC1 (centres unmarked) [II-15, 1-{1-[3-(difluoromethyl)phenyl]-6-[(1,1-dioxidotetrahydro-2H-thiopyran-4-yl)amino]-1H-pyrazolo[3,4-d]pyrimidin-4-yl}-3-(trifluoromethyl)pyrrolidin-3-ol]
17 | – | – | 45.3 nM | CS(=O)(=O)N1CC(Nc2nc(N3C[C@H](O)[C@@H](F)C3)c3cnn(-c4cccc(C(F)F)c4)c3n2)C1 [II-22, (3S,4S)-1-(1-[3-(difluoromethyl)phenyl]-6-{[1-(methylsulfonyl)azetidin-3-yl]amino}-1H-pyrazolo[3,4-d]pyrimidin-4-yl)-4-fluoropyrrolidin-3-ol]
18 | – | – | 16.2 nM | CS(=O)(=O)N1CC(Nc2nc(N3C[C@@H](O)[C@H](F)C3)c3cnn(-c4cccc(C(F)F)c4)c3n2)C1 [II-23, (3R,4R)-1-(1-[3-(difluoromethyl)phenyl]-6-{[1-(methylsulfonyl)azetidin-3-yl]amino}-1H-pyrazolo[3,4-d]pyrimidin-4-yl)-4-fluoropyrrolidin-3-ol]
19 | – | – | 40 nM | CCS(=O)(=O)N1CC(Nc2nc(N3CC(CC(C)(C)O)C3)c3cnn(-c4cccc(C(F)F)c4)c3n2)C1 [II-28, 1-[1-(1-[3-(difluoromethyl)phenyl]-6-{[1-(ethylsulfonyl)azetidin-3-yl]amino}-1H-pyrazolo[3,4-d]pyrimidin-4-yl)azetidin-3-yl]-2-methylpropan-2-ol]
20 | – | – | 67.1 nM | C[C@@]1(O)CCN(c2nc(NC3CN(S(C)(=O)=O)C3)nc3c2cnn3-c2cccc(C(F)F)c2)C1 [II-29, (3R)-1-(1-[3-(difluoromethyl)phenyl]-6-{[1-(methylsulfonyl)azetidin-3-yl]amino}-1H-pyrazolo[3,4-d]pyrimidin-4-yl)-3-methylpyrrolidin-3-ol]
21 | – | – | 16.2 nM | CC(C)(O)C1CCN(c2nc(NC3CN(S(=O)(=O)C4CC4)C3)nc3c2cnn3-c2cccc(C(F)F)c2)CC1 [II-30, 2-[1-(6-{[1-(cyclopropylsulfonyl)azetidin-3-yl]amino}-1-[3-(difluoromethyl)phenyl]-1H-pyrazolo[3,4-d]pyrimidin-4-yl)piperidin-4-yl]propan-2-ol]
22 | – | – | 56.7 nM | CCS(=O)(=O)N1CC(Nc2nc(N3CC(N4CCOCC4)C3)c3cnn(-c4cccc(C(F)F)c4)c3n2)C1 [II-32, 1-[3-(difluoromethyl)phenyl]-N-[1-(ethylsulfonyl)azetidin-3-yl]-4-[3-(morpholin-4-yl)azetidin-1-yl]-1H-pyrazolo[3,4-d]pyrimidin-6-amine]
23 | – | – | 193 nM | CS(=O)(=O)N1CC(Nc2nc(N3C[C@H](O)[C@@H](F)C3)c3cnn(-c4cccc(OC(F)F)c4)c3n2)C1 [IV-6, (3S,4S)-1-(1-[3-(difluoromethoxy)phenyl]-6-{[1-(methylsulfonyl)azetidin-3-yl]amino}-1H-pyrazolo[3,4-d]pyrimidin-4-yl)-4-fluoropyrrolidin-3-ol]
